Experimental data as given in patent US20100105638A1, “COSMETIC COMPOSITIONS” (priority 2007, published 2010).
Like-named read-outs stand apart in the source and are kept apart here.

Experiments:
[1] = Solubility of Biotin in aqueous niacinamide / sodium ascorbyl phosphate solutions (addition until turbid); type: physicochemical
Description: The solubility of Biotin was assessed in aqueous niacinamide (Niacinamide PC, DSM Nutritional Products)/sodium ascorbyl phosphate (STAY-C® 50, DSM Nutritional Products) solutions in different concentration. As reference, the solubility of biotin in water was assessed.
After the addition of 5 g of water into a 10 ml glass vial, STAY-C® 50 and Niacinamide PC were added in order to yield the ratios and wt. % as indicated in table 1. The mixtures were stirred with a magnetic stirrer at RT until STAY-C® 50 and Niacinamide PC were completely dissolved. Then, biotin was added in about 1 mg steps to the mixture until the solution becomes turbid. This experiment was repeated twice.
The sum of the amount of biotin which was added before the turbidity occurred is taken as the solubility of Biotin.

[2] = hot water; cited from earlier work

O=C(O)CCCC[C@@H]1SC[C@@H]2NC(=O)N[C@@H]21 [Biotin]
Solubility of Biotin ([1]; Reference: water without STAY-C 50 and Niacinamide PC, RT): 0.022 wt. % | Solubility of Biotin ([1]; water, STAY-C 50 0.1 wt. %, Niacinamide PC 1 wt. %, ratio 1:10, RT): 0.15 wt. % | Solubility of Biotin ([1]; water, STAY-C 50 0.1 wt. %, Niacinamide PC 3 wt. %, ratio 1:30, RT): 0.17 wt. % | Solubility of Biotin ([1]; water, STAY-C 50 0.1 wt. %, Niacinamide PC 5 wt. %, ratio 1:50, RT): 0.20 wt. % | Solubility of Biotin ([1]; water, STAY-C 50 0.1 wt. %, Niacinamide PC 10 wt. %, ratio 1:100, RT): 0.26 wt. % | Solubility of Biotin ([1]; water, STAY-C 50 0.5 wt. %, Niacinamide PC 1 wt. %, ratio 1:2, RT): 0.33 wt. % | Solubility of Biotin ([1]; water, STAY-C 50 0.5 wt. %, Niacinamide PC 3 wt. %, ratio 1:6, RT): 0.38 wt. % | Solubility of Biotin ([1]; water, STAY-C 50 0.5 wt. %, Niacinamide PC 5 wt. %, ratio 1:10, RT): 0.41 wt. % | Solubility of Biotin ([1]; water, STAY-C 50 0.5 wt. %, Niacinamide PC 10 wt. %, ratio 1:20, RT): 0.47 wt. % | Solubility of Biotin ([1]; water, STAY-C 50 1.0 wt. %, Niacinamide PC 1 wt. %, ratio 1:1, RT): 0.64 wt. % | Solubility of Biotin ([1]; water, STAY-C 50 1.0 wt. %, Niacinamide PC 3 wt. %, ratio 1:3, RT): 0.66 wt. % | Solubility of Biotin ([1]; water, STAY-C 50 1.0 wt. %, Niacinamide PC 5 wt. %, ratio 1:5, RT): 0.70 wt. % | Solubility of Biotin ([1]; water, STAY-C 50 1.0 wt. %, Niacinamide PC 10 wt. %, ratio 1:10, RT): 0.76 wt. % | Solubility of Biotin ([1]; water, STAY-C 50 3.0 wt. %, Niacinamide PC 1 wt. %, ratio 3:1, RT): 1.53 wt. % | Solubility of Biotin ([1]; water, STAY-C 50 3.0 wt. %, Niacinamide PC 3 wt. %, ratio 1:1, RT): 1.65 wt. % | Solubility of Biotin ([1]; water, STAY-C 50 3.0 wt. %, Niacinamide PC 5 wt. %, ratio 1:1.6, RT): 1.71 wt. % | Solubility of Biotin ([1]; water, STAY-C 50 3.0 wt. %, Niacinamide PC 10 wt. %, ratio 1:3.3, RT): 1.78 wt. % | Solubility of Biotin [2]: about 0.02 g/100 ml
